From patent US20170333509A1, “MAILLARD REACTION PRODUCT-DECOMPOSING AGENT” (ARKRAY, Inc., priority 2016, published 2017)

Experiments:
[1] = test system: AGEs modified bovine serum albumin (AGE-BSA) cross-linked to collagen; test: AGEs Cross-Link Breaking Effect Confirmatory Test 2 (AGE-BSA cross-linked to collagen-coated microplate, ELISA); format: biochemical; details: cross-link breaking reaction at 37° C. for 18 hours
Description: The test was carried out according to the description in Sara Vasan et al. (Nature, 382, pp 275-278 (1996)).
300 μL/well of SuperBlock T20 (PBS) Blocking Buffer was added to a commercially available 96-well microplate precoated with collagen, which then was reacted at 37° C. for one hour. After the reaction, it was washed with 0.05% polyethylene (20) sorbitan monolaurate (Tween 20)/PBS(−), and then AGEs modified bovine serum albumin (AGE-BSA) was added to each well of the microplate, which then was subjected to a crosslinking reaction at 37° C. for four hours. After the reaction, it was washed with Tween 20/PBS(−). Thereafter, a plant extract was added to each well and thereby it was subjected to a cross-link breaking (cleaving) reaction at 37° C. for 18 hours. After that, it was washed with Tween 20/PBS(−) and a primary antibody (anti-albumin bovine serum rabbit-polyclonal) was added thereto, which then was reacted at room temperature for 30 minutes. […] As a reaction stop solution, 1N HCl was added thereto, and the absorbance at 450 nm (dominant wavelength)/630 nm (complementary wavelength) was measured with a microplate reader. The amount of AGE-BSA that remained was determined from a calibration curve in which the amount of AGE-BSA was varied. Furthermore, the AGE-BSA decomposition rate (Collagen cross-link decomposition rate) was determined using the following formula. […]

[2] = AGEs Cross-Link Breaking Effect Confirmatory Test 1 (benzoic acid from PPD by reverse-phase HPLC); format: biochemical; details: plant extract (hot water, 80° C.) or 10 mmol/L PTB : 10 mmol/L PPD : 0.2 mol/L phosphate buffer pH 7.4 = 5:1:4, 37° C., eight hours, n=3
Description: The test was carried out according to the description in […] al. (Nature, 382, pp 275-278 (1996)). […] A plant extract, 10 mmol/L of PPD, and 0.2 mol/L of phosphate buffer solution (pH 7.4) were mixed together at a ratio of 5:1:4 and then were reacted at 37° C. for eight hours (n=3). After completion of the reaction, hydrochloric acid was added thereto to stop the reaction. […] The amount of benzoic acid contained in the reaction solution was determined by subtracting the amount of benzoic acid contained in the sample, which was measured separately. Since 1 mol of PPD produces 1 mol of benzoic acid, the cross-link breaking rate was calculated by the following formula. Cross-link breaking rate (%)={(A-B)/C}×100 A: The amount of benzoic acid contained in the reaction solution B: The amount of benzoic acid contained in the sample C: The amount of PPD provided for the reaction (the amount of the substrate) As a control, a test was carried out using 10 mmol/L of PTB instead of the plant extract.

Row | SMILES | Collagen Cross-Link Decomposition Rate (%) (AGE-BSA decomposition rate) [1] | Amount of Remaining AGE-BSA ([1]; absorbance 450 nm/630 nm, calibration curve) [ng] | Cross-Link Breaking Rate (%) (Mean Value ± Standard Deviation) [2]
1 | O=C1O[C@H]2[C@@H]3OC(=O)c4cc(O)c(O)c(O)c4-c4c(O)c(O)c5oc(=O)c6c(c(O)c(O)c7oc(=O)c4c5c76)-c4c(cc(O)c(O)c4O)C(=O)OC[C@H]3OC(O)[C@@H]2OC(=O)c2cc(O)c(O)c(O)c2-c2c1cc(O)c(O)c2O (mixture of isomers) [Punicalagin, punicalagin] | 65.7 | 343.3 | 
2 | O=C(C[n+]1ccsc1)c1ccccc1.[Br-] [PTB, N-phenacylthiazolium bromide] |  |  | 20.47 ± 0.29
